This passage reports Kd results from patent publication US11401260B2, “Biochemical binding of RET9 and VEGFR2 inhibitors” (Kala Pharmaceuticals, Inc., priority 2017, dated 2022).

The target in experiment [1] is vascular endothelial growth receptor 2 (VEGFR2) (Homo sapiens (Human), UniProt P35968). Put plainly: VEGFR2 competition binding assay (DISCOVERX KINOMESCAN). The following applies: 11-point dose response, 3-fold serial dilution starting at 1 μM. The method, then: A competition binding assay ([…]) was used to measure the ability of a compound to compete for binding of an immobilized adenosine triphosphate (ATP) site directed ligand using a DNA-tagged vascular endothelial growth receptor 2 (VEGFR2) as the target. The ability of the test compound to compete with the immobilized ligand was measured using quantitative polymerase chain reaction (qPCR) of the DNA tag (Fabian, M. A. et al., 23 Nature Biotechnology 329-336 (2005); Karaman, M. W. et al., 26 Nature Biotechnology 127-132 (2008)). A VEGFR2 tagged T7 phage strain was prepared in an Escherichia coli (E. coli) derived from the BL21 strain. The E. coli were grown to log-phase, infected with VEGFR2 tagged T7 phage and then incubated with shaking at 32° C. until lysis. The lysate containing the kinase was then centrifuged and filtered to remove cell debris. Affinity resin for the VEGFR2 assay was prepared by treating Streptavidin-coated magnetic beads with a biotinylated small molecule ligand for 30 minutes at room temperature. […] The VEGFR2 concentration in the eluate was measured using qPCR. […] Binding constants were calculated with standard dose-response curve using the Hill equation with Hill slope set to -1. […]

The next experiment has as its target RET9 (Homo sapiens (Human), UniProt P07949). The experiment is described as follows: RET9 competition binding assay (DISCOVERX KINOMESCAN). The method, then:
A competition binding assay ([…]) was used to measure the ability of a compound to compete for binding of an immobilized adenosine triphosphate (ATP) site directed ligand using a DNA-tagged vascular endothelial growth receptor 2 (VEGFR2) as the target. The ability of the test compound to compete with the immobilized ligand was measured using quantitative polymerase chain reaction (qPCR) of the DNA tag (Fabian, M. A. et al., 23 Nature Biotechnology 329-336 (2005); Karaman, M. W. et al., 26 Nature Biotechnology 127-132 (2008)). Similarly, a competition binding assay ([…]) was used to determine the dissociation constant (Kd) of Compound 1 to RET9.

pKd: −log10 of the molar value.

Sequence of vascular endothelial growth receptor 2 (VEGFR2) (P35968 20-1356): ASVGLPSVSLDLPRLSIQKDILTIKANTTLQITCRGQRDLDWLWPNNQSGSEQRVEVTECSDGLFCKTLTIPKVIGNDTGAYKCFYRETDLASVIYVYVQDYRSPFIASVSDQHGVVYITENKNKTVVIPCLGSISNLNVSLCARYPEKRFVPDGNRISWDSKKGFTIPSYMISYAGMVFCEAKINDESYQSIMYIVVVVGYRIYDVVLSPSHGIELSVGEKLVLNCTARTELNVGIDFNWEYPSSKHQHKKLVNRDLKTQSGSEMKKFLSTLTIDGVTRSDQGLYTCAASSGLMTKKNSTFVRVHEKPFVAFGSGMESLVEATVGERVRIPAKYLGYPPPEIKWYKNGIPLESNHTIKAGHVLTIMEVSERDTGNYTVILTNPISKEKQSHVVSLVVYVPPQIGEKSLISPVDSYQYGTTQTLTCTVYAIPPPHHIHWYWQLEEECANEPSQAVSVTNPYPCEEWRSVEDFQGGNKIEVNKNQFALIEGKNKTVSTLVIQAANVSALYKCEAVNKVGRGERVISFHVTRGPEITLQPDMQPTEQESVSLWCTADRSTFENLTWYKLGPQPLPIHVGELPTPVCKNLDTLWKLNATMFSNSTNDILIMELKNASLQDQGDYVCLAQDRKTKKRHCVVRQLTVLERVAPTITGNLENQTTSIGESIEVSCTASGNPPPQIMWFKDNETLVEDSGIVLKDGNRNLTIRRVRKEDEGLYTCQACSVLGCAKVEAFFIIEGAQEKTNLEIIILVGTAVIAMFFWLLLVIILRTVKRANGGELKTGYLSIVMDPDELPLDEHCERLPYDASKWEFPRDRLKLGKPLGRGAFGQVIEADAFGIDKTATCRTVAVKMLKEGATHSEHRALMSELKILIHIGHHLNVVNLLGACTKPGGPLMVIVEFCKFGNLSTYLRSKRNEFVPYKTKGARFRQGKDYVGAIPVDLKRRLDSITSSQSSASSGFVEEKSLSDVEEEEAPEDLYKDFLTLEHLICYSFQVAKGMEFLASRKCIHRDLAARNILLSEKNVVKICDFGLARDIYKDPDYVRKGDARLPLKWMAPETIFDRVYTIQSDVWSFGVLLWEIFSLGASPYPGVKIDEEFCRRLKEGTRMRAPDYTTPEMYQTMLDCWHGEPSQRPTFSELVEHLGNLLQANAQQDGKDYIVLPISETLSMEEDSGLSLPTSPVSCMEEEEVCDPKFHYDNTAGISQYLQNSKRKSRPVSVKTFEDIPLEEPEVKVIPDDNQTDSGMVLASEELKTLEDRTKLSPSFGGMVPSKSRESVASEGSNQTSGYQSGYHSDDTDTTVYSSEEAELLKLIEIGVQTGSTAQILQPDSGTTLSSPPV
Sequence of RET9 (P07949 other isoform, or with tags, fused parts or gaps): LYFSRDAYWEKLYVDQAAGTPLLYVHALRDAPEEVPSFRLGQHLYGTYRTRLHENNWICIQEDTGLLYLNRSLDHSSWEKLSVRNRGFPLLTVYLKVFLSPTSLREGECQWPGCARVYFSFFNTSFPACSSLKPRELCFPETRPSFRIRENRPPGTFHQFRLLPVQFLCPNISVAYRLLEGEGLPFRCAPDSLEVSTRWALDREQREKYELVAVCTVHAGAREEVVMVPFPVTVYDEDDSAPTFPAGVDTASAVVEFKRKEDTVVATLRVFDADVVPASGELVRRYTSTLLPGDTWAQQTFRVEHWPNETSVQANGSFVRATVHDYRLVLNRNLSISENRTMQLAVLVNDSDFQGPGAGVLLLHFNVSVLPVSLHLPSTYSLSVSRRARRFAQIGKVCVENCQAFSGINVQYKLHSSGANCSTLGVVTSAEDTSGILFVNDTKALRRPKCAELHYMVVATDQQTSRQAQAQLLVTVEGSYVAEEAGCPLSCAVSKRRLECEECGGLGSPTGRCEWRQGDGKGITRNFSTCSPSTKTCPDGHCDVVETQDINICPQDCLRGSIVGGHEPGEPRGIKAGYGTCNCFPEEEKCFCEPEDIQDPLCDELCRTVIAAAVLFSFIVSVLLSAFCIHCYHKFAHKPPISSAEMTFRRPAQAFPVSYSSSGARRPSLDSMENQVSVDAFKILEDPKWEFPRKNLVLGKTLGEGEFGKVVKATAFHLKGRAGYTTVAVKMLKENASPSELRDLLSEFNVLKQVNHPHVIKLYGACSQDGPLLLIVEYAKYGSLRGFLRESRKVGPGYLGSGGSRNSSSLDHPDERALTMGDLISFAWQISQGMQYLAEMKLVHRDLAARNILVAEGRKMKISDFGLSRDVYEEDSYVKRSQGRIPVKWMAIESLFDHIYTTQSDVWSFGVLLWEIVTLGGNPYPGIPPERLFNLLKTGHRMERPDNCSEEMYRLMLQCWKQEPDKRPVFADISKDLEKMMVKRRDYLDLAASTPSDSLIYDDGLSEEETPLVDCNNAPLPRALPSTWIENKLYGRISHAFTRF

On to `COc1cc2c(Oc3ccc4[nH]c(C)cc4c3F)ncnc2cc1OCCCN1CCC(CO)(CO)CC1` [Compound 1, 7-(3-[4,4-bis(hydroxymethyl)-1-piperidinyl]propoxy)-4-(4-fluoro-2-methyl-1H-indol-5-yloxy)-6-methoxyquinazoline], for which the pKd (commonly −log10 of the Kd, conventionally taken in molar units) is 9.42 in experiment [1] and 8.41 on RET9.
